How the values were obtained:
[1] = test system: BTK kinase activity (PLCγ2 phosphorylation) in Ramos cells; experiment: Washout experiment with Ramos cells; format: cell-based, human; conditions: 100 nM compound for 1 hour, then washout
Description: Washout Experiment with Ramos Cells
Ramos cells were serum starved for one hour in RPMI media+1% glutamine at 37° C. After starvation, Ramos cells were treated with 100 nM compound diluted in serum free RPMI media for 1 hour. After compound treatment, the media was removed and cells were washed with compound-free media. Subsequently, Ramos cells were washed every 2 hours and resuspended in fresh compound-free media. Cells were collected at specified timepoints, treated with 1 ug anti-human IgM (Southern Biotech cat #2022-01) for 10 minutes on ice to induce BCR signaling and then washed in PBS. Ramos cells were then lysed in Cell Extraction Buffer (Invitrogen FNN0011) supplemented with Roche complete protease inhibitor tablets (Roche 11697498001) and phosphatase inhibitors (Roche 04 906 837 001) and 18 ug total protein lysate was loaded in each lane. Inhibition of BTK kinase activity was assayed by measuring its substrate (PLCγ2) phosphorylation by western blot with phospho-specific antibodies from Cell Signaling Technologies cat #3871. The results of this experiment with compounds I-2, I-4 and I-7 are depicted in FIGS. 1, 2 and 3.

[2] = test system: BTK signaling in Ramos cells; experiment: BTK Ramos cellular assay (phosphorylation of BTK substrate PLCγ2); format: cell-based, human; conditions: Homo sapiens, 1 hour compound, anti-IgM stimulation, read-out: BTK Inhibition (Ramos cellular)
Description: Compounds I-2, I-4, and I-7 were assayed in Ramos human Burkitt lymphoma cells. Ramos cells were grown in suspension in T225 flasks, spun down, resuspended in 50 ml serum-free media and incubated for 1 hour. Compound was added to Ramos cells in serum free media to a final concentration of 1, 0.1, 0.01, or 0.001 μM. Ramos cells were incubated with compound for 1 hour, washed again and resuspended in 100 ul serum-free media. Cells were then stimulated with 1 μg of goat F(ab′)2 Anti-Human IgM and incubated on ice for 10 minutes to activate B cell receptor signaling pathways. After 10 minutes, the cells were washed once with PBS and then lysed on ice with Invitrogen Cell Extraction buffer. 16 μg total protein from lysates were loaded on gel and blots were probed for phosphorylation of the BTK substrate PLCγ2.

BTK = BTK (Homo sapiens (Human), UniProt Q06187); experiment: Mass spectrometry for BTK (intact protein); format: binding; conditions: 1 hr, 10× fold excess of compound
Description: Mass Spectrometry for BTK
Intact BTK was incubated for 1 hr at a 10× fold excess of I-7 to protein. Aliquots (2 μl) of the samples were diluted with 10 μl of 0.1% TFA prior to micro C4 ZipTipping directly onto the MALDI target using Sinapinic acid as the desorption matrix (10 mg/ml in 0.1% TFA:Acetonitrile 20:80).

BTK, sequence (Q06187 whole entry): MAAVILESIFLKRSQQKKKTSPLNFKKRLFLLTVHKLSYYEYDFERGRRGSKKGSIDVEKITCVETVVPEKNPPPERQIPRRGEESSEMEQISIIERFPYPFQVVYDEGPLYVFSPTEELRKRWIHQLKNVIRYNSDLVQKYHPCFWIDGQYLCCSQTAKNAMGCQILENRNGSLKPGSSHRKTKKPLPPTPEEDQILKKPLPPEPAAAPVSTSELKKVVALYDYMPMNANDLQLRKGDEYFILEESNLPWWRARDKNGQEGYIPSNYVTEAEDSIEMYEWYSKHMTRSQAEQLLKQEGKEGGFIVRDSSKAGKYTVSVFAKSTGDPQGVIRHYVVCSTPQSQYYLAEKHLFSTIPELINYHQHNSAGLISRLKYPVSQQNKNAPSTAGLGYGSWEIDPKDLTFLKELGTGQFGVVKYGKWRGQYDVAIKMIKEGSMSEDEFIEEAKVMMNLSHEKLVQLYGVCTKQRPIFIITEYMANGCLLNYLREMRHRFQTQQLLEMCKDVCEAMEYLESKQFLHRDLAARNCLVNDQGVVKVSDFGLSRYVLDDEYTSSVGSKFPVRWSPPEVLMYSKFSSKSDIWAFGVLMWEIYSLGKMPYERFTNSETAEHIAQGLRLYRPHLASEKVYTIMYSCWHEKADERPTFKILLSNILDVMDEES

| IC50 [2] [nM] | modification of BTK by mass spectrometry (BTK) | Compound | BTK Inhibition Type [1] |
| --- | --- | --- | --- |
| < 10 |  | C=CC(=O)Nc1cccc(Oc2nc(Nc3ccccc3)ncc2F)c1 [Compound I-228, N-(3-(5-fluoro-2-(phenylamino)pyrimidin-4-yloxy)phenyl)acrylamide] | irreversible |
| < 10 |  | C=CC(=O)Nc1cccc(Oc2nc(Nc3ccccc3)ncc2C)c1 [Compound I-248, N-(3-(5-methyl-2-(phenylamino)pyrimidin-4-yloxy)phenyl)acrylamide] | irreversible |
|  | completely modify | C=CC(=O)Nc1cccc(Nc2nc(Nc3ccc(OCCOC)cc3)ncc2F)c1 [Compound I-182, N-(3-(5-fluoro-2-(4-(2-methoxyethoxy)phenylamino)pyrimidin-4-ylamino)phenyl)acrylamide] |  |
| < 10 |  | C=CC(=O)Nc1cccc(Nc2nc(Nc3ccc(OC)nc3)ncc2F)c1 [Compound I-243, N-(3-(5-fluoro-2-(6-methoxypyridin-3-ylamino)pyrimidin-4-ylamino)phenyl)acrylamide] | irreversible |
|  |  | C=CC(=O)Nc1cccc(Nc2nc(Nc3ccccc3)ncc2F)c1 [Compound I-28, N-(3-(5-fluoro-2-(phenylamino)pyrimidin-4-ylamino)phenyl)acrylamide] | irreversible |
| 10 to 100 | completely modify | C=CC(=O)N1CCC[C@@H](Nc2nc(Nc3cccc(OC)c3)ncc2F)C1 [Compound I-195, (R)-1-(3-(5-fluoro-2-(3-methoxyphenylamino)pyrimidin-4-ylamino)piperidin-1-yl)prop-2-en-1-one] |  |
|  | completely modify | C=C(C#N)C(O)c1ccc(Nc2nc(Nc3ccccc3)ncc2F)cc1 (stereo not drawn) [Compound I-161, 2-((4-(5-fluoro-2-(phenylamino)pyrimidin-4-ylamino)phenyl)(hydroxy)methyl)acrylonitrile] |  |
| 10 to 100 | completely modify | C=CC(=O)N(C)Cc1ccc(Nc2nc(Nc3ccccc3)ncc2C)cc1 [Compound I-219, N-methyl-N-(4-(5-methyl-2-(phenylamino)pyrimidin-4-ylamino)benzyl)acrylamide] |  |
| < 10 |  | C=CC(=O)Nc1cccc(Nc2nc(Nc3ccccc3)ncc2C(N)=O)c1 [Compound I-230, 4-(3-acrylamidophenylamino)-2-(phenylamino)pyrimidine-5-carboxamide] | irreversible |
| < 10 |  | C#CCOc1cccc(Nc2ncc(C)c(Nc3cccc(NC(=O)C=C)c3)n2)c1 [Compound I-35, N-(3-(5-methyl-2-(3-(prop-2-ynyloxy)phenylamino)pyrimidin-4-ylamino)phenyl) acrylamide] | irreversible |
| 10 to 100 | completely modify | C=CC(=O)N1CCOc2ccc(Nc3ncc(F)c(Nc4cccc(Cl)c4)n3)cc21 [Compound I-149, 1-(6-(4-(3-chlorophenylamino)-5-fluoropyrimidin-2-ylamino)-2H-benzo[b][1,4]oxazin-4(3H)-yl)prop-2-en-1-one] |  |
|  | completely modify | C=C(C#N)C(O)c1cccc(Nc2nc(Nc3ccc(OCCOC)cc3)ncc2F)c1 (stereo not drawn) [Compound I-71, 2-((3-(5-fluoro-2-(4-(2-methoxyethoxy)phenylamino)pyrimidin-4-ylamino)phenyl)(hydroxy)methyl)acrylonitrile] |  |
| < 10 |  | C=CC(=O)Nc1cccc(Nc2nc(Nc3ccc(F)cc3)ncc2F)c1 [Compound I-247, N-(3-(5-fluoro-2-(4-fluorophenylamino)pyrimidin-4-ylamino)phenyl)acrylamide] | irreversible |
| < 10 |  | C=CC(=O)Nc1cccc(Nc2nc(Nc3cccc(OC)c3)ncc2C(F)(F)F)c1 [Compound I-242, N-(3-(5-trifluoromethyl-2-(3-methoxyphenylamino)pyrimidin-4-ylamino)phenyl)acrylamide] | irreversible |
| 10 to 100 | completely modify | C=CC(=O)Nc1cccc(Nc2nc(Nc3cccc(OC(F)(F)F)c3)ncc2F)c1 [Compound I-244, N-(3-(5-fluoro-2-(3-(trifluoromethoxy)phenylamino)pyrimidin-4-ylamino)phenyl)acrylamide] |  |
| 100 to 1000 | completely modify | CC(C)=CC(=O)c1cccc(Nc2nc(Nc3cccc(OCCN(C)C)c3)ncc2F)c1 [Compound I-207] |  |
| 10 to 100 |  | C=CC(=O)N1Cc2ccc(Nc3nc(Nc4ccc(OC)nc4)ncc3F)cc2C1 [Compound I-165, 1-(5-(5-fluoro-2-(6-methoxypyridin-3-ylamino)pyrimidin-4-ylamino)isoindolin-2-yl)prop-2-en-1-one] |  |
| 10 to 100 |  | C=CC(=O)Nc1cccc(Nc2nc(Nc3ccc4c(c3)N(S(C)(=O)=O)CCO4)ncc2F)c1 [Compound I-140, N-(3-(2-(4-methylsulfonyl-2,3-dihydrobenzo[1,4]oxazin-6-yl)amino-5-fluoropyrimidin-4-ylamino)phenyl)acrylamide] |  |
| < 10 |  | C=CC(=O)Nc1cccc(Nc2nc(Nc3cccc(OCCN(C)C)c3)ncc2F)c1 [Compound I-233, N-(3-(2-(3-(2-(dimethylamino)ethoxy)phenylamino)-5-fluoropyrimidin-4-ylamino)phenyl)acrylamide] |  |
| 10 to 100 |  | Cc1cnc(Nc2ccccc2)nc1Nc1cccc(NC(=O)/C=C/CN(C)C)c1 [Compound I-38, (E)-4-(dimethylamino)-N-(3-(5-methyl-2-(phenylamino)pyrimidin-4-ylamino)phenyl)but-2-enamide] | reversible |
| < 10 |  | C=CC(=O)Nc1cccc(Nc2nc(Nc3ccccc3)ncc2C(F)(F)F)c1 [Compound I-245, N-(3-(5-trifluoromethyl-2-(phenylamino)pyrimidin-4-ylamino)phenyl)acrylamide] |  |
| 100 to 1000 |  | C=CC(=O)N1CCC[C@@H](Oc2nc(Nc3ccc(OC)nc3)ncc2F)C1 [Compound I-180, (R)-1-(3-(5-fluoro-2-(6-methoxypyridin-3-ylamino)pyrimidin-4-yloxy)piperidin-1-yl)prop-2-en-1-one] |  |
| < 10 |  | C=CC(=O)Nc1cccc(Nc2nc(Nc3ccc(OCCOC)nc3)ncc2C(C)=O)c1 [Compound I-122, N-(3-{5-Acetyl-2-[6-(2-methoxy-ethoxy)-pyridin-3-ylamino]-pyrimidin-4-ylamino}-phenyl)-acrylamide] |  |
| < 10 |  | C=CC(=O)N1CCOc2ccc(Nc3nc(Nc4ccc5c(c4)CC(=O)N5)ncc3C(C)=O)cc21 [Compound I-129, 5-[5-Acetyl-4-(4-acryloyl-3,4-dihydro-2H-benzo[1,4]oxazin-6-ylamino)-pyrimidin-2-ylamino]-1,3-dihydro-indol-2-one] |  |
| 10 to 100 |  | C=CC(=O)Nc1cccc(Nc2nc(Nc3ccc(OCCOC)cc3)ncc2C2CC2)c1 [Compound I-139, N-(3-(5-cyclopropyl-2-(4-(2-methoxyethoxy)phenylamino)pyrimidin-4-ylamino)phenyl)acrylamide] |  |
| < 10 |  | C=CC(=O)Nc1cccc(Nc2nc(Nc3ccc(OCC(C)(C)O)c(F)c3)ncc2F)c1 [Compound I-315, N-(3-(5-fluoro-2-(3-fluoro-4-(2-hydroxy-2-methylpropoxy)phenylamino)pyrimidin-4-ylamino)phenyl)acrylamide] |  |
| < 10 |  | C=CC(=O)Nc1cccc(Nc2nc(Nc3ccc(OC)nc3)ncc2C#N)c1 [Compound I-173, N-(3-(5-cyano-2-(6-methoxypyridin-3-ylamino)pyrimidin-4-ylamino)phenyl)acrylamide] |  |
| < 10 |  | C=CC(=O)Nc1cccc(Nc2nc(Nc3ccc(Cl)c(OCC(C)(C)O)c3)ncc2F)c1 [Compound I-249, N-(3-(2-(4-chloro-3-(2-hydroxy-2-methylpropoxy)phenylamino)-5-fluoropyrimidin-4-ylamino)phenyl)acrylamide] |  |

| Compound | IC50 [2] [nM] | modification of BTK by mass spectrometry (BTK) | BTK Inhibition Type [1] |
| --- | --- | --- | --- |
| 2-((4-(5-fluoro-2-(3-trifluoromethoxyphenylamino)pyrimidin-4-ylamino)phenyl)(hydroxy)methyl)acrylonitrile [Compound I-163] |  | completely modify |  |
